Assay results: patent publication US11639929B2, “Universal histidine-tag binding compounds and methods of use thereof as fluorescent probes and sensors” (YEDA RESEARCH AND DEVELOPMENT CO. LTD., priority 2014, dated 2023)

Experiments:
[1] = molecular target: T1, His-CaM(Ca^+2) (Mus musculus, UniProt P0DP26); assay: Surface plasmon resonance on immobilized His-CaM with Ca2+; assay type: binding; settings: SPR, Table 2, CaCl2 0.3 mM; read-out: Dissociation constant
T1 construct: purchased Israel Structural Proteomics Center (Weizmann Institute of Science)
Experimental: SPR experiments were performed to assess the dissociation constant between His-CaM and the compound 1 in the presence/absence of Ca^2+ ions and other ligands. His-CaM was diluted in 180 μL PBS buffer (4.1 mM, pH=7.3) and 20 μL sodium acetate (1 M, pH=3) to reach a final concentration of 20 μg/mL and then immobilized on a Biacore sensor chip CM5 through EDC/NHS chemistry. Flow cells were activated for 5 min by injecting 50 μL mixture of 50 mM NHS:200 mM EDC. Then 50 μL of His-CaM (20 μg/mL) was injected at a rate of 10 μL/min followed by injection of ethanolamine (1 M) to block the remaining surface-activated groups. Various analytes (Table 1) were injected in different concentrations, ranging from 0.1-2 μM for (20 μL/min, 80 μL injection with a delay of 180 s wash) (Table 1). Between consecutive analyte injections, the surface was regenerated with 2 mM NaOH (20 μL at 10 μL/min) followed by PBS buffer (60 μL at 10 μL/min). Non-derivatized dextran matrix flow cells served as reference cells. […] CaCl2 (0.3 mM) was pre-incubated with the analyte before injections. For the control compound C15 (entry 5), prior to each injection, the chip was washed with 20 μL EDTA (50 mM, 20 μL/min) followed by PBS buffer (20 μL at 20 μL/min) to remove any traces of Ni^2+. The data were globally fitted using BiaEvaluation software 3.2.

[2] = molecular target: T2, His-Bcl-2 (Homo sapiens, UniProt P10415); assay: Probing protein-protein interactions for Bcl-2 with the His-Bcl-2-5 complex; assay type: binding; settings: complex 200 nM
T2 construct: purchased ProSpec-Tany TechnoGene Ltd. (Ness Ziona, Israel)
T2 sequence (P10415 whole entry): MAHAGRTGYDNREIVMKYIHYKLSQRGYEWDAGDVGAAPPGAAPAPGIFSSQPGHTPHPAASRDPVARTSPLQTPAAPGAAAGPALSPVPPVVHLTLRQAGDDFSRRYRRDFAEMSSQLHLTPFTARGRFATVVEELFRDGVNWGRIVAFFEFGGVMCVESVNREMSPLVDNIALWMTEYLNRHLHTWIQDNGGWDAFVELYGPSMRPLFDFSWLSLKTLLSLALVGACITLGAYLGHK
Experimental: Compounds 1-5 (50 μL, 10 μM) in phosphate buffer (4.1 mM, pH=7.3) were dispensed into a 384-well plate and fluorescence intensities were recorded with an excitation wavelength of 330 nm. His-Bcl-2 (final concentration, 200 nM) and Bax BH3 (final concentration, 1.6 μM) were subsequently added to each well and the fluorescence intensity values were recorded again. The emission values correspond to the maximal intensities recorded either at λem=530 nm or at λem=560 nm. Fluorescence was measured in triplicate. Data shown in FIG. 27 is the average of the triplicates and error bars represent standard deviation. Control experiments were performed in a similar manner (FIG. 28).
A mixture of compound 5 (200 nM) and His-Bcl-2 (200 nM) in PBS buffer (4.1 mM, pH=7.3) was dispensed into a 384-well microplate, and the fluorescence emission spectra were recorded. Various proteins (0.8 μM) and Bax BH3 peptide (0.8 μM) were added and the fluorescence emission was again recorded. Fluorescence measurements were performed in triplicate. The emission intensities before the addition of each protein were normalized to 100% (FIG. 27b).

[3] = molecular target: T1, His-CaM(Ca^+2); assay: Screening assay with small molecules and peptide inhibitors using the His-CaM(Ca+2)-1 complex; settings: test substance 1.6 μM; decrease indicates binding to the CaM surface
Experimental: A mixture of compound 1 (200 nM), His-CaM (400 nM), and CaCl2 (0.3 mM) in PBS buffer (4.1 mM, pH=7.3) was dispensed into a 384-well microplate, and fluorescence emission spectra were recorded. Then various drugs (1.6 μM) and peptides (1.6 μM) were added and the fluorescence emission was again recorded. Fluorescence measurements were performed in triplicate and the emission intensities before the addition of each drug were normalized to 100% (FIG. 24).

[4] = tested on: E. coli expressing His-OmpC; assay: Decorating bacteria with oligonucleotides, fluorescence microscopy; assay type: cell-based; settings: 500 nM with Ni(II)
Experimental: Transformed bacteria with the different OmpC constructs (OmpC or His-OmpC) were cultured to saturation in LB medium supplemented with 100 μg/ml of ampicillin at 30° C. 40 μl of the pre-cultured cells were then diluted into 4 ml of fresh LB medium supplemented with ampicillin and incubated until the OD600 reaches ˜0.6. Protein expression was then induced by the addition of 0.1% Rhamnose and 20 μM isopropyl-b-D-1-thiogalactopyranoside (IPTG) and cultures were allowed to grow at 30° C. for 18 h.
The bacterial cells (OmpC or His-OmpC) were collected by centrifugation at 6000 g for 4 min. The pellet was washed twice with PBS×1 buffer and resuspended in the same buffer to an OD600 of 0.3. To a 100 μl sample of the bacteria suspension, a preincubated sample of DNA (500 nM) and NiCl2 (2.5 μM) was added, and the cells were incubated at room temperature for 1 h. Then the bacterial sample were washed twice with PBS, resuspended in 100 μl PBS and placed on a glass-bottom dish (P35G-1.5-14-C; MatTek) precoated with poly-1-lysine (Sigma Aldrich) and left to adhere for 1 h. Finally, the wells were washed vigorously with PBS three times and imaged using an Olympus IX51 fluorescent microscope. The samples were imaged using 60× or 100× objective lenses. […]

Compound	Kd [1]	emission signal of the His-Bcl-2-5 complex after addition of protein or peptide [2]	fluorescence emission of the His-CaM(Ca+2)-1 complex after addition of drug or peptide [3]	fluorescent labeling of bacteria, fluorescence imaging [4]
CC[C@H](C)[C@H](NC(=O)[C@H](Cc1ccccc1)NC(=O)[C@H](CC(N)=O)NC(=O)[C@H](CCCCN)NC(=O)[C@H](CCCCN)NC(=O)[C@H](Cc1c[nH]c2ccccc12)NC(=O)[C@H](CCCNC(=N)N)NC(=O)[C@H](CCCNC(=N)N)NC(=O)[C@@H](N)CCCCN)C(=O)N[C@@H](C)C(=O)N[C@H](C(=O)N[C@@H](CO)C(=O)N[C@@H](C)C(=O)N[C@@H](C)C(=O)N[C@@H](CC(N)=O)C(=O)N[C@@H](CCCNC(=N)N)C(=O)N[C@@H](Cc1ccccc1)C(=O)N[C@@H](CCCCN)C(=O)N[C@@H](CCCCN)C(=O)N[C@H](C(=O)N[C@@H](CO)C(=O)N[C@@H](CO)C(=O)N[C@@H](CO)C(=O)NCC(=O)N[C@@H](C)C(=O)N[C@@H](CC(C)C)C(=O)O)[C@@H](C)CC)C(C)C [Compound M13]	8.8 nM	did not change the emission signal	–	–
Clc1ccc(C(c2ccc(Cl)cc2)n2cc[n+](CC(OCc3ccc(Cl)cc3Cl)c3ccc(Cl)cc3Cl)c2)cc1 (stereo not shown) [calmidazolium]	–	–	decrease in the fluorescence emission	–
Bax-BH3: amphipathic alpha helical peptide of Bax, Bax BH3 peptide (55-74) wild type (STKKLSECLKRIGDELDSNM)	–	decreased	–	–
Cy5-labeled ODN: Cy5-labeled ODN lacking a tri-NTA group, negative control (DNA GCGGCGAGGCAGC; Cy5 label, position not given here)	–	–	–	No fluorescence
Mastoparan	–	did not change the emission signal	decrease in the fluorescence emission	–
